Measurements from the supplement of paper PMC10307832.

What was measured:
Assay in all cases: relative viability (nuclei count vs DMSO), 5 days (fraction); higher = more cells survive
[1] = compound: C1CNCCC1C2=CC(=NN2)C3=CC=NC=C3 + CS(=O)(=O)N1CCN(Cc2cc3nc(-c4cccc5[nH]ncc45)nc(N4CCOCC4)c3s2)CC1 [Pictilisib] (partner 1 µM)
How it was run: (§1)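 Values are medians from duplicate plates. Each reflects relative viability, defined as the nuclei count of treated wells over that of vehicle wells. Lung cancer cell lines in 1536-well plates were pin-tool dosed one day after seeding with one drug alone or with a fixed anchor-drug dose plus five library-drug doses (not always all listed) in √10 steps, then fixed, stained and imaged at 4× after 5 days.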

[2] = compound: C1CNCCC1C2=CC(=NN2)C3=CC=NC=C3 + Nc1ncn([C@H]2C[C@H](O)[C@@H](CO)O2)c(=O)n1 [Decitabine] (partner 2 µM)
How it was run: as §1

[3] = compound: C[C@@H](N)c1ccc(C(=O)Nc2ccnc3[nH]ccc23)cc1 + CS(=O)(=O)N1CCN(Cc2cc3nc(-c4cccc5[nH]ncc45)nc(N4CCOCC4)c3s2)CC1 [Pictilisib] (partner 1 µM)
How it was run: as §1

[4] = compound: O[C@H]1CC[C@H](Nc2ncc3nc(Nc4c(F)cc(F)cc4F)n([C@H]4CCOC4)c3n2)CC1 [Tanzisertib] + CS(=O)(=O)N1CCN(Cc2cc3nc(-c4cccc5[nH]ncc45)nc(N4CCOCC4)c3s2)CC1 [Pictilisib] (partner 1 µM)
How it was run: as §1

Cell Line | relative viability ([1]; first compound 0.08 µM) | relative viability ([1]; first compound 0.8 µM) | relative viability ([1]; first compound 2.53 µM) | relative viability ([1]; first compound 8 µM) | relative viability ([2]; first compound 0.08 µM) | relative viability ([2]; first compound 0.8 µM) | relative viability ([2]; first compound 2.53 µM) | relative viability ([2]; first compound 8 µM) | relative viability ([3]; first compound 0.04 µM) | relative viability ([3]; first compound 0.1265 µM) | relative viability ([3]; first compound 0.4 µM) | relative viability ([3]; first compound 1.265 µM) | relative viability ([3]; first compound 4 µM) | relative viability ([4]; first compound 0.08 µM) | relative viability ([4]; first compound 0.253 µM) | relative viability ([4]; first compound 0.8 µM) | relative viability ([4]; first compound 2.53 µM) | relative viability ([4]; first compound 8 µM)
NCI-H1792 | 0.223 | 0.246 | 0.345 | 0.304 | 0.553 | 0.398 | 0.551 | 0.514 | 0.368 | 0.273 | 0.38 | 0.349 | 0.288 | 0.307 | 0.261 | 0.29 | 0.231 | 0.243
LXF-289 | 0.776 | 0.845 | 0.823 | 0.829 | 0.349 | 0.35 | 0.395 | 0.371 | 0.943 | 0.779 | 0.928 | 0.872 | 0.683 | 0.887 | 0.745 | 0.459 | 0.735 | 0.804
HCC-827 | 0.981 | 0.918 | 0.919 | 0.891 | 0.294 | 0.302 | 0.297 | 0.336 | 1.22 | 1.27 | 1.12 | 0.978 | 0.783 | 0.876 | 0.937 | 1.14 | 0.885 | 0.536
EMC-BAC-2 | 0.449 | 0.613 | 0.544 | 0.517 | – | 1.06 | 1 | 1.03 | 0.491 | 0.575 | 0.531 | 0.476 | 0.411 | 0.606 | 0.534 | 0.57 | 0.528 | 0.419
NCI-H520 | 0.277 | 0.324 | 0.293 | 0.351 | 0.445 | 0.519 | 0.518 | 0.498 | 0.33 | 0.301 | 0.29 | 0.396 | 0.504 | 0.372 | 0.322 | 0.29 | 0.287 | 0.297
NCI-H1755 | 0.423 | 0.412 | 0.419 | 0.372 | 0.712 | 0.717 | 0.692 | 0.641 | 0.418 | 0.487 | 0.517 | 0.382 | 0.364 | 0.47 | 0.456 | 0.433 | 0.429 | 0.331
NCI-H1993 | 0.802 | 0.806 | 0.933 | 0.623 | 0.573 | 0.576 | 0.473 | 0.7 | 0.801 | 0.865 | – | 0.812 | 0.833 | 0.875 | 0.873 | 0.774 | 1.09 | 0.844
NCI-H23 | 0.447 | 0.533 | 0.648 | 0.601 | 0.306 | – | 0.301 | 0.377 | 0.605 | 0.536 | 0.487 | – | 0.557 | 0.488 | 0.483 | 0.459 | 0.499 | 0.365
SW 900 | – | – | – | – | 0.418 | – | 0.424 | 0.475 | – | – | – | – | – | – | – | – | – | –
NCI-H1437 | 0.443 | 0.485 | 0.45 | 0.528 | 0.574 | 0.573 | 0.624 | 0.602 | 0.468 | 0.419 | 0.407 | 0.396 | 0.488 | 0.445 | 0.492 | 0.452 | 0.486 | 0.565
SK-MES-1 | 0.397 | 0.344 | 0.404 | 0.319 | 0.29 | 0.436 | 0.397 | 0.339 | 0.375 | 0.39 | 0.359 | 0.395 | 0.404 | 0.378 | 0.338 | 0.366 | 0.34 | 0.245
NCI-H2405 | 0.442 | 0.441 | 0.373 | 0.366 | 0.705 | 0.735 | 0.793 | 0.753 | – | 0.433 | 0.399 | 0.194 | 0.207 | 0.438 | 0.422 | 0.49 | 0.421 | 0.323
NCI-H2023 | 0.251 | 0.228 | 0.27 | 0.295 | 0.219 | 0.222 | 0.251 | 0.194 | 0.283 | 0.26 | 0.403 | 0.139 | 0.301 | 0.259 | 0.197 | 0.246 | 0.243 | 0.233
NCI-H838 | 0.439 | 0.491 | 0.471 | 0.461 | 0.431 | 0.441 | 0.46 | 0.451 | 0.402 | 0.421 | 0.335 | 0.31 | 0.317 | 0.564 | 0.424 | 0.493 | 0.536 | 0.493
NCI-H1299 | 0.711 | 0.886 | 0.772 | 0.819 | – | – | – | – | 0.874 | 0.921 | 0.973 | 0.892 | 0.678 | 0.762 | 0.713 | 0.699 | 0.893 | 0.729
NCI-H1563 | 0.575 | 0.662 | 0.592 | 0.611 | – | – | – | – | 0.691 | 0.661 | 0.638 | 0.578 | 0.688 | 0.661 | 0.638 | 0.572 | 0.601 | 0.607
Calu-6 | 0.843 | 1.02 | 0.971 | 0.904 | – | – | – | – | 0.952 | 0.988 | 0.854 | 0.928 | 0.75 | 0.901 | 1.01 | 0.865 | 1.03 | 0.976
NCI-H1703 | 0.253 | 0.253 | 0.21 | 0.22 | – | – | – | – | 0.235 | 0.247 | 0.205 | 0.234 | 0.197 | 0.272 | 0.245 | 0.258 | 0.224 | 0.218
EBC-1 | 0.447 | 0.425 | 0.364 | 0.409 | – | – | – | – | 0.38 | 0.408 | 0.347 | 0.473 | 0.593 | 0.468 | 0.454 | 0.405 | 0.338 | 0.275
NCI-H2342 | – | – | – | – | 0.634 | 0.709 | 0.685 | 0.819 | – | – | – | – | – | – | – | – | – | –
NCI-H1648 | – | – | – | – | 0.453 | 0.572 | – | 0.573 | – | – | – | – | – | – | – | – | – | –
NCI-H522 | – | – | – | – | 0.619 | 0.646 | 0.552 | 0.789 | – | – | – | – | – | – | – | – | – | –
